In the first experiment the target is T1, butyrylcholinesterase (BuChE) (Equus caballus, UniProt P81908).
T1 construct: butyrylcholinesterase (E.C. 3.1.1.8) from equine serum; purchased Sigma–Aldrich (Steinheim, Germany); host or cells: equine serum
T1 sequence (P81908 whole entry): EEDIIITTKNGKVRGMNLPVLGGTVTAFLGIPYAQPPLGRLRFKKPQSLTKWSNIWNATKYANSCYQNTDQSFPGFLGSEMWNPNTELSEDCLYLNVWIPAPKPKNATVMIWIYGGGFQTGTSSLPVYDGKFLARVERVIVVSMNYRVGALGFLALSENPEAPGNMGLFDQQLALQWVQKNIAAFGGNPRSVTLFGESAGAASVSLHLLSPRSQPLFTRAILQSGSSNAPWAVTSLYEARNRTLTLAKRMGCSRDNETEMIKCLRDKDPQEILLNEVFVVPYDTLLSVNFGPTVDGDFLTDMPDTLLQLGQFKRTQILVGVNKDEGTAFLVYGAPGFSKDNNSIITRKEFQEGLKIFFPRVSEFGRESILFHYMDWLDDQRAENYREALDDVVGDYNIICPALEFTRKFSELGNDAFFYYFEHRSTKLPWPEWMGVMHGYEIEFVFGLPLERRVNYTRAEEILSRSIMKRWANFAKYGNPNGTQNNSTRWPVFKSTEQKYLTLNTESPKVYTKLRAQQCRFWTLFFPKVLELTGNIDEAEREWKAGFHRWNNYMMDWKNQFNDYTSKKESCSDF
Nature of the experiment: biochemical.
Conditions: not given
The protocol: Acetylcholinesterase (E.C.3.1.1.7) (Type VI-S from electric eel and recombinant human enzyme) and butyrylcholinesterase (E.C. 3.1.1.8) from equine serum were purchased from Sigma–Aldrich (Steinheim, Germany). All of the materials used in the synthesis were purchased from Merck or Sigma–Aldrich (St. Louis, MO, USA) (Darmstadt, Germany). The ^1H NMR and ^13C NMR spectra in DMSO-d6 were recorded using a Bruker operating at 600 and 150 MHz digital FT-NMR spectrometer (Billerica, MA, USA, Bioscience, Bruker). The NMR spectra’s splitting patterns were recognized and categorized as doublet (d), singlet (s), double doublet (dd), multiplet (m) and triplet (t). In hertz, the coupling constants (J) are given (Hz). Mass spectra were captured on a Shimadzu LCMS-IT-TOF system (Kyoto, Japan) using the electrospray ionization (ESI) method. Using thin-layer chromatography and silica gel 60 F254 to test the purity of synthesized compounds (Darmstadt, Germany, Merck, KGaA).
The inhibition of AChE and BChE was determined using a method described earlier. Briefly, the stock solutions (1 mg/mL) of test analogues were prepared using DMSO. The working solutions (1–100 µg/mL) were prepared using serial dilutions (a serial dilution means a series of diluted solutions, e.g., 0.1 mg/mL, 0.2 mg/mL and so on; the solutions contained 5% DMSO and 95% water). The various concentrations of test compounds (10 µL) were pre-incubated with sodium phosphate buffer (0.1 M; pH 8.0; 150 µL) and AChE (0.1 U/mL; 20 µL) for 15 min at 25 °C. The reaction was initiated via the addition of DTNB (1 mM; 10 µL) and […] (1 mM; 10 µL). The mixture of reaction was mixed using a cyclomixer and incubated for 10 min at 25 °C. The absorbance was measured using a microplate reader at a 410 nm wavelength against the blank reading containing 10 µL DMSO instead of the test compound (the solution contained 5% DMSO and 95% water).
The compound `O=[N+]([O-])c1ccc(-c2nnc(/N=C(/CSc3nc4ccccc4o3)c3cccc([N+](=O)[O-])c3)o2)cc1` [Compound 1, (E)-2-(Benzo[d]oxazol-2-ylthio)-1-(3-nitrophenyl)-N-(5-(4-nitrophenyl)-1,3,4-oxadiazol-2-yl)ethan-1-imine] came in with an IC50 of 8.9 ± 1.8 µM.

Regarding `O=[N+]([O-])c1cccc(/C(CSc2nc3ccccc3o2)=N\c2nnc(-c3cccc([N+](=O)[O-])c3)o2)c1` [Compound 2, (E)-2-(Benzo[d]oxazol-2-ylthio)-1-(3-nitrophenyl)-N-(5-(3-nitrophenyl)-1,3,4-oxadiazol-2-yl)ethan-1-imine], the IC50 came to 7.5 ± 1.2 µM.

Still in this experiment, the particulars now being: read-out: BuChE Inhibition IC50 ± SEM.
With `O=[N+]([O-])c1cccc(/C(CSc2nc3ccccc3o2)=N\c2nnc(-c3ccc(Cl)cc3Cl)o2)c1` [Compound 3, (E)-2-(Benzo[d]oxazol-2-ylthio)-N-(5-(2,4-dichlorophenyl)-1,3,4-oxadiazol-2-yl)-1-(3-nitrophenyl)ethan-1-imine], the IC50 came out at 9.2 ± 1.9 µM.

Regarding `O=[N+]([O-])c1cccc(/C(CSc2nc3ccccc3o2)=N\c2nnc(-c3ccc(Cl)cc3)o2)c1` [Compound 4, (E)-2-(Benzo[d]oxazol-2-ylthio)-N-(5-(4-chlorophenyl)-1,3,4-oxadiazol-2-yl)-1-(3-nitrophenyl)ethan-1-imine], the IC50 is 11.9 ± 1.1 µM.

As to `CN(C)c1ccc(-c2nnc(/N=C(/CSc3nc4ccccc4o3)c3cccc([N+](=O)[O-])c3)o2)cc1` [Compound 5, (E)-4-(5-((2-(Benzo[d]oxazol-2-ylthio)-1-(3-nitrophenyl)ethylidene)amino)-1,3,4-oxadiazol-2-yl)-N,N-dimethylaniline], the IC50 was found to be 16.6 ± 2.5 µM.

For `Cc1ccc(/C(CSc2nc3ccccc3o2)=N\c2nnc(-c3ccc(OCc4ccccc4)cc3)o2)cc1` [Compound 6, (E)-2-(Benzo[d]oxazol-2-ylthio)-N-(5-(4-(benzyloxy)phenyl)-1,3,4-oxadiazol-2-yl)-1-(p-tolyl)ethan-1-imine], the IC50 is 28.6 ± 3.8 µM.

As for `Cc1ccc(/C(CSc2nc3ccccc3o2)=N\c2nnc(-c3cccc([N+](=O)[O-])c3)o2)cc1` [Compound 7, (E)-2-(Benzo[d]oxazol-2-ylthio)-N-(5-(3-nitrophenyl)-1,3,4-oxadiazol-2-yl)-1-(p-tolyl)ethan-1-imine], the IC50 was 15.8 ± 3.1 µM.

Regarding `Cc1ccc(/C(CSc2nc3ccccc3o2)=N\c2nnc(-c3ccc(N(C)C)cc3)o2)cc1` [Compound 8, (E)-4-(5-((2-(Benzo[d]oxazol-2-ylthio)-1-(p-tolyl)ethylidene)amino)-1,3,4-oxadiazol-2-yl)-N,N-dimethylaniline], the IC50 came to 24.6 ± 3.8 µM.

On to `Cc1ccc(/C(CSc2nc3ccccc3o2)=N\c2nnc(-c3ccc(Cl)cc3Cl)o2)cc1` [Compound 9, (E)-2-(Benzo[d]oxazol-2-ylthio)-N-(5-(2,4-dichlorophenyl)-1,3,4-oxadiazol-2-yl)-1-(p-tolyl)ethan-1-imine], for which the IC50 came out at 14.8 ± 2.7 µM.

As to `Cc1ccc(/C(CSc2nc3ccccc3o2)=N\c2nnc(-c3ccc([N+](=O)[O-])cc3)o2)cc1` [Compound 10, (E)-2-(Benzo[d]oxazol-2-ylthio)-N-(5-(4-nitrophenyl)-1,3,4-oxadiazol-2-yl)-1-(p-tolyl)ethan-1-imine], the IC50 turned out to be 18.5 ± 1.9 µM.

For `Cc1ccc(/C(CSc2nc3ccccc3o2)=N\c2nnc(-c3ccc(Cl)cc3)o2)cc1` [Compound 11, (E)-2-(Benzo[d]oxazol-2-ylthio)-N-(5-(4-chlorophenyl)-1,3,4-oxadiazol-2-yl)-1-(p-tolyl)ethan-1-imine], the IC50 was found to be 12.3 ± 1.5 µM.

In the case of `Cc1ccc(/C(CSc2nc3ccccc3o2)=N\c2nnc(-c3ccc(C=O)cc3)o2)cc1` [Compound 12, (E)-4-(5-((2-(Benzo[d]oxazol-2-ylthio)-1-(p-tolyl)ethylidene)amino)-1,3,4-oxadiazol-2-yl)benzaldehyde], the IC50 was determined as 28.7 ± 3.9 µM.

As for `Cc1cccc(/C(CSc2nc3ccccc3o2)=N\c2nnc(-c3ccc(OCc4ccccc4)cc3)o2)c1` [Compound 13, (E)-2-(Benzo[d]oxazol-2-ylthio)-N-(5-(4-(benzyloxy)phenyl)-1,3,4-oxadiazol-2-yl)-1-(m-tolyl)ethan-1-imine], the IC50 is 31.5 ± 4.9 µM.

Take `Cc1ccc(/C(CSc2nc3ccccc3o2)=N\c2nnc(-c3ccc4ccccc4c3)o2)cc1` [Compound 14, (E)-2-(Benzo[d]oxazol-2-ylthio)-N-(5-(naphthalen-2-yl)-1,3,4-oxadiazol-2-yl)-1-(p-tolyl)ethan-1-imine]: the IC50 is 42.6 ± 6.1 µM.

In the case of `Clc1ccc(/C(CSc2nc3ccccc3o2)=N\c2nnc(-c3ccc(Cl)c(Cl)c3)o2)cc1Cl` [Compound 15, (E)-2-(Benzo[d]oxazol-2-ylthio)-1-(3,4-dichlorophenyl)-N-(5-(3,4-dichlorophenyl)-1,3,4-oxadiazol-2-yl)ethan-1-imine], the half-inhibitory concentration (IC50) was 7.2 ± 2.3 µM.

As for `O=[N+]([O-])c1cccc(-c2nnc(/N=C(/CSc3nc4ccccc4o3)c3ccc(Cl)c(Cl)c3)o2)c1` [Compound 16, (E)-2-(Benzo[d]oxazol-2-ylthio)-1-(3,4-dichlorophenyl)-N-(5-(3-nitrophenyl)-1,3,4-oxadiazol-2-yl)ethan-1-imine], the IC50 is 7.6 ± 2.1 µM.

As to `Clc1ccc(-c2nnc(/N=C(/CSc3nc4ccccc4o3)c3ccc(Cl)c(Cl)c3)o2)cc1` [Compound 17, (E)-2-(Benzo[d]oxazol-2-ylthio)-N-(5-(4-chlorophenyl)-1,3,4-oxadiazol-2-yl)-1-(3,4-dichlorophenyl)ethan-1-imine], the IC50 amounted to 13.3 ± 3.2 µM.

Take `CN(C)c1ccc(-c2nnc(/N=C(/CSc3nc4ccccc4o3)c3ccc(Cl)c(Cl)c3)o2)cc1` [Compound 18, (E)-4-(5-((2-(Benzo[d]oxazol-2-ylthio)-1-(3,4-dichlorophenyl)ethylidene)amino)-1,3,4-oxadiazol-2-yl)-N,N-dimethylaniline]: the IC50 amounted to 18.3 ± 3.2 µM.

Regarding `O=[N+]([O-])c1ccc(-c2nnc(/N=C(/CSc3nc4ccccc4o3)c3ccc(Cl)c(Cl)c3)o2)cc1` [Compound 19, (E)-2-(Benzo[d]oxazol-2-ylthio)-1-(3,4-dichlorophenyl)-N-(5-(4-nitrophenyl)-1,3,4-oxadiazol-2-yl)ethan-1-imine], the IC50 turned out to be 9.8 ± 2.3 µM.
